Literature values as cited in EP4699692A1, “ACIDIC GAS ADSORBENT, STRUCTURE COMPRISING ACIDIC GAS ADSORBENT, ACIDIC GAS ADSORPTION DEVICE, AND ACIDIC GAS ADSORBENT PRODUCTION METHOD” (Nitto Denko Corporation, priority 2023, dated 2024).

Tests used:
[1] = amine monomer; regulatory class
[2] = amine monomer; regulatory class; remark: listed apart in the source
[3] = amine monomer
[4] = amine monomer; remark: listed apart in the source

In the case of NCCNCCNCCN [TETA, triethylenetetramine], the “Poisonous and Deleterious Substances Control Act” value [1] is listed as “Deleterious substance”, the “Fire Service Act” value [2] is listed as “Hazardous material category IV class III petroleums” and the “Skin irritation test (rabbit)” value [3] is listed as “Strong irritant”. The “Mutagenicity test (Ames test)” value [4] was “Positive”.
